Test results: patent publication US9580398B2, “Compounds, compositions, and methods for modulating ferroptosis and treating excitotoxic disorders” (The Trustees of Columbia University in the City of New York, priority 2012, dated 2017)
Where two headings read alike, the source gives them in different places. Where a SMILES comes first, the peptide text is derived from it. [ ]: non-standard residue; d: D form. The star is where a group is joined. Nle = CCCC[C@H](N)C(=O)O; Cbz = O=C(OCc1ccccc1)*; CH2F = FC*

Tests used:
HT-1080 cells = assay: Erastin-induced death in HT-1080 cells with co-treated inhibitors (viability, microscopy); type: cell-based, human; details: for effect on erastin-induced ferroptosis (glutamine metabolism modulators): HT-1080 and BJeLR cells, media with glucose and Gln, AOA 2 mM; for protection from death on late addition / effect of co-treatment on erastin-induced death: HT-1080 cells; for protection from death on late addition: added up to 6 hours after erastin
Procedure: (§1) Cell viability was typically assessed in 384-well format by Alamar Blue (Invitrogen) fluorescence (ex/em 530/590) measured on a Victor3 platereader (Perkin Elmer, Waltham, Mass.). In some experiments, Trypan Blue dye exclusion counting was performed using an automated cell counter (ViCell, Beckman-Coulter Inc., Brea, Calif.). Cell viability in test conditions is reported as a percentage relative to the negative control treatment.
Phase contrast images were acquired using an AMG EVOS FL (Advanced Microscopy Group) microscope equipped with a 10× phase-contrast objective. Three independent fields were acquired for each experimental condition. Representative samples from one field of view are shown.

[1] = tested on: erastin (10 μM)-treated HT-1080 cells; assay: Inhibition of death in erastin (10 μM)-treated HT-1080 cells, viability by Alamar Blue; type: cell-based, human; details: for EC50: Alamar Blue, from dose response curves; for ability to prevent erastin-induced death: erastin 10 μM, HT-1080 cells
Procedure: as §1
Flow cytometry data was analyzed using FloJo (9.3.2, Tree Star, Inc., Ashland, Oreg.). Chemical structures were drawn using ChemDraw Ultra (Cambridgesoft, Cambridge, Mass.). Computational determination of log P (Slog P function) was performed using MOE 2010.10 (Chemical Computing Group, Montreal, […].). Viability data was analyzed using Excel (Microsoft Corp., […].). Summary data and heatmaps were generated using R. Dose-response curves were computed by 4-parameter logistic regression in Prism 5.0c (GraphPad Software). Images were manipulated using Photoshop CS4 and Illustrator CS4 (Adobe, San Jose, Calif.).
The ability of various compounds disclosed herein to inhibit death in erastin (10 μM)-treated HT-1080 cells were tested. Cell viability was assessed by Alamar Blue. EC50 values (nM) were computed from dose response curves.

[2] = 2,2-diphenyl-1-picrylhydrazyl (DPPH) assay, cell-free antioxidant potential; details: test compound 0.05 mM, absorbance at 517 nm
Procedure: The stable radical DPPH (Blois, 1958) was dissolved in methanol to a final concentration of 0.05 mM. 1 mL of DPPH solution was added to 2 μL of each test compound dissolved in DMSO. The final concentration of each test compound was 0.05 mM. Samples were inverted several times and allowed to incubate at room temperature for 10 minutes. Samples were then aliquoted to white 96-well solid-bottom dishes (Corning) and absorbance at 517 nm was recorded using a TECAN M200 plate reader. All values were normalized to background (methanol only). The experiment was repeated twice. Results within each trial normalized to DMSO (=1.0), then averaged across trials.

[3] = tested on: ROS production in HT-1080 cells; assay: Analysis of reactive oxygen species production by flow cytometry (H2DCFDA, C11-BODIPY, MitoSOX); type: cell-based, human
Procedure: The day before the experiment, 200,000 cells/well were seeded in 6-well dishes (Corning Inc., Corning, N.Y.). […] Data was collected from the FL1 (H2DCFDA, C11-BODIPY) or FL2 channel (MitoSOX). A minimum of 10,000 cells were analyzed per condition.

[4] = tested on: HT-1080, BJeLR and Calu-1 cells; assay: Modulatory profiling of small molecule cell death inhibitors against erastin; type: cell-based, human; details: erastin 10 μM, 24 hours, 10-point, 4-fold dilution series
Procedure: The day before the experiment, cells were seeded in black, 384-well clear bottom plates (Corning) at a density of 1,000 cells/well using a Beckman Biomek FX Workstation. All compounds (except 3-methyladenine and chloroquine, which were diluted in water) were diluted in DMSO at 250 times the final highest test concentration, and aliquoted across a 384-well plate (Greiner, Monroe, N.C.). A ten-point, 4-fold dilution series of each inhibitor in DMSO was made using a multichannel pipette. Replicates of this mother plate were stored at −20° C. […] Medium was removed from cells and replaced with 36 μL medium containing DMSO (0.1%) or erastin (10 μM final concentration). Using the Biomek FX, 4 μL were then transferred from each inhibitor daughter plate into the DMSO-containing or erastin-containing assay plates. For 3-methyladenine and chloroquine, inhibitors were prepared fresh in media at 10-fold the final concentration in the presence of DMSO or 10 μM erastin. These solutions were manually pipetted onto cells in 384-well format. Assay plates were incubated at 37° C. for 24 hours. Viability was assessed using Alamar Blue.
The modulatory effect (Me) for drug-drug interactions was computed as follows. First, plate-based background correction was performed using Alamar Blue values from empty (cell-free) wells included on each plate. Next, within each experiment, 100% viability is determined as the average Alamar Blue score for cells treated with modulator=DMSO and lethal=DMSO, and all Alamar Blue values were scaled from 0 to 1 with the DMSO×DMSO condition=1. The individual effects of each modulator and lethal (e.g. in the presence of DMSO) at all tested doses were then ascertained. […] Next, BExp was compared to the actual observed viability. […] By default, Me in DMSO-treated cells is equal to 0. […] Me values for each inhibitor-lethal drug combination were hierarchically clustered and plotted as a heatmap using the heatmaps.2 function of the gplots library in R.

[5] = Homo sapiens, HT-1080, inhibition of death in erastin (10 μM)-treated HT-1080 cells

COC(=O)CCC(=O)C(=O)OC [DMK, dimethyl alphaketoglutarate]
effect on erastin-induced ferroptosis (glutamine metabolism modulators) (HT-1080 cells): lethality of erastin was restored

CCOC(=O)c1ccc(NC2CC2)c(N)c1 [SRS8-72, ethyl 3-amino-4-(cyclopropylamino)benzoate]
EC50 [1, 5]: 0.88 µM | ability to prevent erastin-induced death [1]: an order of magnitude less potent than Fer-1 | intrinsic antioxidant capability (DPPH) [2]: retained equivalent intrinsic antioxidant capability

N#CC(=C(/N)Sc1ccccc1N)/C(C#N)=C(\N)Sc1ccccc1N [U0126]
effect on erastin-induced ROS accumulation [3]: prevented the accumulation of H2DCFDA-sensitive ROS | modulation of erastin-induced death [4]: rescued from erastin-induced death | protection from death on late addition (HT-1080 cells): substantial protection from death

CC(=O)OCOC(=O)CN(CC(=O)OCOC(C)=O)c1ccccc1OCCOc1ccccc1N(CC(=O)OCOC(C)=O)CC(=O)OCOC(C)=O [BAPTA-AM]
effect of co-treatment on erastin-induced death (HT-1080 cells): had no effect on erastin-induced death

Cn1cnc(N)c2ncnc1-2 [3-methyladenine]
modulation of erastin-induced death [4]: not consistently modulated

CCN(CC)CCCC(C)Nc1ccnc2cc(Cl)ccc12 (stereo not shown) [chloroquine]
modulation of erastin-induced death [4]: not consistently modulated

Cc1c(C)c2c(c(C)c1O)CCC(C)(C(=O)O)O2 (stereo not shown) [trolox]
effect on erastin-induced ROS accumulation ([3]; erastin 10 μM, HT-1080 cells, H2DCFDA, C11-BODIPY): prevented the accumulation of H2DCFDA-sensitive ROS | modulation of erastin-induced death [4]: rescued from erastin-induced death | protection from death on late addition (HT-1080 cells): substantial protection from death

O=C(O)CN(CCOCCOCCN(CC(=O)O)CC(=O)O)CC(=O)O [EGTA]
effect of co-treatment on erastin-induced death (HT-1080 cells): had no effect on erastin-induced death

COC(=O)C[C@H](NC(=O)[C@H](C)NC(=O)[C@@H](NC(=O)OCc1ccccc1)C(C)C)C(=O)CF [z-VAD-fmk] (Cbz-Val-Ala-Asp(OMe)-CH2F)
modulation of erastin-induced death [4]: not consistently modulated

Cc1ccc(N(CC(=O)O)CC(=O)O)c(OCCOc2cc3cc(-c4ncc(C(=O)O)o4)oc3cc2N(CC(=O)O)CC(=O)O)c1 [Fura-2]
effect of co-treatment on erastin-induced death (HT-1080 cells): had no effect on erastin-induced death

CO/C1=C\C(C)=C\[C@@H](C)[C@@H](O)[C@@H](C)C/C(C)=C/C=C/[C@H](OC)[C@@H]([C@@H](C)[C@@H](O)[C@H](C)[C@@]2(O)C[C@@H](O)[C@H](C)[C@@H](C(C)C)O2)OC1=O [bafilomycin A1]
modulation of erastin-induced death [4]: not consistently modulated

CCOC(=O)c1ccc(NC2C3CC4CC(C3)CC2C4)c(NCc2cncnc2)c1 (stereo not shown) [SRS15-22, ethyl 4-(2-adamantylamino)-3-(pyrimidin-5-ylmethylamino)-benzoate]
EC50 [1, 5]: 0.021 µM

C=C(C)[C@H]1Cc2c(ccc3c2O[C@@H]2COc4cc(OC)c(OC)cc4[C@@H]2C3=O)O1 [rotenone]
MitoSOX-sensitive mitochondrial ROS production ([3]; HT-1080 cells, 6 hours, erastin 10 μM, rotenone 250 nM): enhanced MitoSOX-sensitive ROS production

CCOC(=O)[C@H]1O[C@@H]1C(=O)N[C@@H](CC(C)C)C(=O)NCCC(C)C [E64d]
modulation of erastin-induced death [4]: not consistently modulated

CN1C(=O)C(Cc2c[nH]c3ccccc23)NC1=S (stereo not shown) [necrostatin-1]
modulation of erastin-induced death [4]: not consistently modulated

CCOC(=O)c1cnc(NC2CCCCC2)c(NCc2ccccc2)c1 [SRS14-91, ethyl 5-(benzylamino)-6-(cyclohexylamino)pyridine-3-carboxylate]
EC50 [1, 5]: 0.048 µM

CCOC(=O)c1ccc(NC2CCCCC2)c([N+](=O)[O-])c1 [SRS8-24, ethyl 4-(cyclohexylamino)-3-nitrobenzoate]
EC50 [1, 5]: > 10 µM | ability to prevent erastin-induced death [1]: destroyed the antioxidant capability of Fer-1, as well as its ability to prevent erastin (10 μM)-induced death | intrinsic antioxidant capability (DPPH) [2]: destroyed the antioxidant capability

O=C(O)C(Cl)Cl [DCA, dichloroacetic acid]
effect on erastin-induced ferroptosis (glutamine metabolism modulators) (HT-1080 cells): had no effect

CCOC(=O)c1ccc(NC2CCC(C(=O)OC(C)(C)C)CC2)c(N)c1 (stereo not shown) [SRS8-46, ethyl 3-amino-4-(4-(tert-butoxycarbonyl)cyclohexylamino) benzoate]
EC50 ([1]; inhibition of death in erastin (10 μM)-treated HT-1080 cells): 0.515 µM

CCCC[C@@H](C=O)NC(=O)[C@H](CC(C)C)NC(=O)[C@H](CC(C)C)NC(C)=O [ALLN] (Ac-Leu-Leu-[Nle]-aldehyde)
modulation of erastin-induced death [4]: not consistently modulated

CCOC(=O)c1ccc(NN2CCN(C)CC2)c(N)c1 [SRS8-53, ethyl 3-amino-4-(4-methylpiperazin-1-ylamino)benzoate]
EC50 [1, 5]: 3.6 µM

CCOC(=O)c1ccc(NC2C3CC4CC(C3)CC2C4)c(NCc2ccccc2)c1 (stereo not shown) [SRS15-20-mono, ethyl 3-(benzylamino)-4-(2-adamantylamino)benzoate]
EC50 [1, 5]: 0.022 µM

CCOC(=O)c1cnc(NC2CCCCC2)c(NCc2ccncn2)c1 [SRS14-93, ethyl 6-(cyclohexylamino)-5-(pyrimidin-4 ylmethylamino)-pyridine-3-carboxylate]
EC50 [1, 5]: 1.55 µM

CCOC(=O)c1ccc(NC23CC4CC(CC(C4)C2)C3)c(N)c1 [SRS15-18, ethyl 3-amino-4-(1-adamantylamino)benzoate]
EC50 [1, 5]: 0.088 µM

CCOC(=O)c1ccc(NC2CCCC2)c(N)c1 [SRS8-73, ethyl 3-amino-4-(cyclopentylamino)benzoate]
EC50 [1, 5]: 0.12 µM

c1ccc(-c2ccccn2)nc1 [2,2-bipyridyl]
protection from death on late addition (HT-1080 cells): substantial protection from death

NOCC(=O)O [AOA, aminooxyacetic acid]
effect on erastin-induced ferroptosis (glutamine metabolism modulators) (HT-1080 cells): rescued

CCOC(=O)c1ccc(NC2CCCCC2)c(NCc2cncnc2)c1 [SRS13-35, ethyl 4-(cyclohexylamino)-3-(pyrimidin-5-ylmethylamino)-benzoate]
EC50 [1, 5]: 0.027 µM

CCOC(=O)c1ccc(NC2CCOCC2)c(N)c1 [SRS8-41, ethyl 3-amino-4-(tetrahydro-2H-pyran-4-ylamino)benzoate]
EC50 [1, 5]: 1.45 µM

CCOC(=O)c1ccc(NC2CCCCC2)c(NCc2ccc3ccccc3c2)c1 [SRS12-51, ethyl 4-(cyclohexylamino)-3-(naphthalen-2-ylmethylamino)-benzoate]
EC50 [1, 5]: 0.056 µM

CCOC(=O)c1ccc(NC2C3CC4CC(C3)CC2C4)c(N)c1 (stereo not shown) [SRS15-17, ethyl 3-amino-4-(2-adamantylamino)benzoate]
EC50 [1, 5]: 0.171 µM

CCOC(=O)c1cc(N)c(NC2CCCCC2)cc1Cl [SRS14-57, ethyl 5-amino-2-chloro-4-(cyclohexylamino)benzoate]
EC50 [1, 5]: 0.054 µM

CCOC(=O)c1ccc(NC2CCC(C(C)(C)C)CC2)c(N)c1 (stereo not shown) [SRS8-92, ethyl 3-amino-4-(4-tert-butylcyclohexylamino)benzoate]
EC50 [1, 5]: 0.042 µM

CCOC(=O)c1ccc(NC2CCCCC2)c(NCc2ccc([N+](=O)[O-])cc2)c1 [SRS12-36, ethyl 4-(cyclohexylamino)-3-((4-nitrobenzyl)amino)benzoate]
EC50 [1, 5]: 0.035 µM

CCOC(=O)c1ccc(NC2CCCCC2)c(NCc2cc(F)cc(F)c2)c1 [SRS12-59, ethyl 4-(cyclohexylamino)-3-(3,5-difluorobenzylamino)-benzoate]
EC50 [1, 5]: 0.095 µM
